Measured values reported in PubChem BioAssay (NCI).
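The compound was tested at five concentrations on cells cultured in 96-well plates, with a 48-hour exposure period. At the GI50, growth is halved. TGI is the concentration that stops growth completely.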

Columns and labels:
Test in all cases: NCI tumour cell line growth inhibition, 48 h
786-0 renal = tested on: 786-0 renal
SK-MEL-2 melanoma = tested on: SK-MEL-2 melanoma
SF-295 CNS = tested on: SF-295 CNS
SK-MEL-28 melanoma = tested on: SK-MEL-28 melanoma
UACC-257 melanoma = tested on: UACC-257 melanoma
U251 CNS = tested on: U251 CNS
OVCAR-5 ovarian = tested on: OVCAR-5 ovarian
HS 578T breast = tested on: HS 578T breast
SW-620 colon = tested on: SW-620 colon
MALME-3M melanoma = tested on: MALME-3M melanoma
K-562 leukemia = tested on: K-562 leukemia
KM12 colon = tested on: KM12 colon
T-47D breast = tested on: T-47D breast
CCRF-CEM leukemia = tested on: CCRF-CEM leukemia
NCI-H522 lung = tested on: NCI-H522 lung
RPMI-8226 leukemia = tested on: RPMI-8226 leukemia
HL-60(TB) leukemia = tested on: HL-60(TB) leukemia
SF-268 CNS = tested on: SF-268 CNS
HOP-92 NSCLC = tested on: HOP-92 NSCLC
MOLT-4 leukemia = tested on: MOLT-4 leukemia
NCI-H460 lung = tested on: NCI-H460 lung
DU-145 prostate = tested on: DU-145 prostate
TK-10 renal = tested on: TK-10 renal
HCC-2998 colon = tested on: HCC-2998 colon
MDA-MB-435 = tested on: MDA-MB-435
A498 renal = tested on: A498 renal
SN12C renal = tested on: SN12C renal
UO-31 renal = tested on: UO-31 renal

Q: For `CC[C@]12C=CCN3CC[C@]4(C(=C(C(=O)OC)C1)Nc1cc5c(cc14)[C@@H]1[C@H](O5)[C@@H](O)[C@@]4(CC)CC(C(=O)OC)=C5Nc6cc(O)ccc6[C@@]56CCN1C46)C32` (stereo not given in full), which GI50 (786-0 renal) is on record?
A: 68.5 nM

Q: And the TGI (786-0 renal)?
A: 4040 nM

Q: And the GI50 (SK-MEL-2 melanoma)?
A: 164 nM

Q: And the TGI (SK-MEL-2 melanoma)?
A: 1580 nM

Q: And the GI50 (SF-295 CNS)?
A: 187 nM

Q: What about the TGI (SF-295 CNS) of the same compound?
A: 9340 nM

Q: What about the GI50 (SK-MEL-28 melanoma) of the same compound?
A: 410 nM

Q: What about the TGI (SK-MEL-28 melanoma) of the same compound?
A: 18400 nM

Q: What about the GI50 (UACC-257 melanoma) of the same compound?
A: 122 nM

Q: What about the TGI (UACC-257 melanoma) of the same compound?
A: > 21500 nM

Q: What about the GI50 (U251 CNS) of the same compound?
A: 195 nM

Q: And the TGI (U251 CNS)?
A: 2580 nM

Q: And the GI50 (OVCAR-5 ovarian)?
A: 262 nM

Q: And the TGI (OVCAR-5 ovarian)?
A: > 22400 nM

Q: What about the GI50 (HS 578T breast) of the same compound?
A: 172 nM

Q: And the TGI (HS 578T breast)?
A: > 50000 nM

Q: What about the GI50 (SW-620 colon) of the same compound?
A: 167 nM

Q: And the TGI (SW-620 colon)?
A: 2270 nM

Q: And the GI50 (MALME-3M melanoma)?
A: 128 nM

Q: And the TGI (MALME-3M melanoma)?
A: 9230 nM

Q: What about the GI50 (K-562 leukemia) of the same compound?
A: 47.5 nM

Q: And the TGI (K-562 leukemia)?
A: > 50000 nM

Q: And the GI50 (KM12 colon)?
A: 256 nM

Q: And the TGI (KM12 colon)?
A: 6990 nM

Q: And the GI50 (T-47D breast)?
A: 103 nM

Q: What about the GI50 (CCRF-CEM leukemia) of the same compound?
A: 94 nM

Q: What about the TGI (CCRF-CEM leukemia) of the same compound?
A: > 50000 nM

Q: What about the GI50 (NCI-H522 lung) of the same compound?
A: 61.4 nM

Q: What about the TGI (NCI-H522 lung) of the same compound?
A: 324 nM

Q: What about the GI50 (RPMI-8226 leukemia) of the same compound?
A: 79.8 nM

Q: And the TGI (RPMI-8226 leukemia)?
A: 990 nM

Q: And the GI50 (HL-60(TB) leukemia)?
A: 19.8 nM

Q: And the TGI (HL-60(TB) leukemia)?
A: 2110 nM

Q: And the GI50 (SF-268 CNS)?
A: 352 nM

Q: What about the TGI (SF-268 CNS) of the same compound?
A: > 20700 nM

Q: What about the GI50 (HOP-92 NSCLC) of the same compound?
A: 15.7 nM

Q: What about the TGI (HOP-92 NSCLC) of the same compound?
A: 1050 nM

Q: What about the GI50 (MOLT-4 leukemia) of the same compound?
A: 134 nM

Q: What about the TGI (MOLT-4 leukemia) of the same compound?
A: > 50000 nM

Q: And the GI50 (NCI-H460 lung)?
A: 332 nM

Q: And the TGI (NCI-H460 lung)?
A: 8080 nM

Q: What about the GI50 (DU-145 prostate) of the same compound?
A: 707 nM

Q: And the TGI (DU-145 prostate)?
A: > 26400 nM

Q: What about the GI50 (TK-10 renal) of the same compound?
A: 64.2 nM

Q: What about the TGI (TK-10 renal) of the same compound?
A: 645 nM

Q: And the GI50 (HCC-2998 colon)?
A: 75.2 nM

Q: What about the TGI (HCC-2998 colon) of the same compound?
A: 335 nM

Q: And the GI50 (MDA-MB-435)?
A: 106 nM

Q: And the TGI (MDA-MB-435)?
A: 1520 nM

Q: What about the GI50 (A498 renal) of the same compound?
A: 81.8 nM

Q: What about the TGI (A498 renal) of the same compound?
A: 407 nM

Q: And the GI50 (SN12C renal)?
A: 185 nM

Q: And the TGI (SN12C renal)?
A: > 9990 nM

Q: What about the GI50 (UO-31 renal) of the same compound?
A: 93.3 nM

Q: What about the TGI (UO-31 renal) of the same compound?
A: 3070 nM
